From US8901118B2, “Compounds and methods for kinase modulation, and indications therefor” (Plexxikon Inc., priority 2010, dated 2014)

What was measured:
[1] = Relative solubility by turbidity in aqueous buffers (pH 1.5, 4.5, 6.8, 7.4); format: physicochemical; conditions: for turbidity threshold (L, M, H) 1.4: pH 1.5 (SGF); for turbidity threshold (L, M, H) 4.5: pH 4.5 (SIF); for turbidity threshold (L, M, H) 6.8: pH 6.8 (SIF); for turbidity threshold (L, M, H) 7.4: pH 7.4 (HEPES)
Description: As an indication of relative solubility, the turbidity of compounds in aqueous solutions is assessed. To assess possible compound properties in different physiological compartments, such as stomach, intestine, and blood, a series of aqueous buffers with varying pH is used. Thus each compound is diluted into four different physiologically relevant buffers and solution turbidity is measured by spectrophotometry.
Compounds are dissolved at a concentration of 25 mM in dimethyl sulfoxide, then serially diluted 1:1 into a 96 well plate, diluting 10 times in pure dimethyl sulfoxide, with the final well of each row a dimethyl sulfoxide blank. In an assay plate, 99 μL of appropriate buffer is added to each well, and 1 μL of each sample dilution is added to the buffer, achieving a range of final total concentrations in aqueous solutions having different pH. The buffers used are Simulated Gastric Fluid (SGF-pH 1.5) 0.5M NaCl, pH 1.5; Simulated Intestinal fluid (SIF-pH 4.5 and pH 6.8) 0.05M NaH2PO4, pH 4.5 and 6.8; and Hepes Buffer (HEPES-pH 7.4) 10 mM HEPES, 150 mM NaCl, pH 7.4. Control compounds pyrene, estriol and propranolol HCl are also assessed. Plates are spun and then mixed for 1 minute, and the absorbance is read using a Tecan Safire II to read wavelengths in the visible range (490, 535, and 650 nm) at four locations per well, reflecting the degree of turbidity present. The average optical density for each wavelength in each well is graphed vs. compound concentration, and the concentration at which the curve crosses a threshold O.D. of 0.01 for each wavelength is reported as the endpoint turbidity assay result. The average of the three wavelengths is used to compare turbidity of compounds.

TrkA kinase = TrkA kinase (Homo sapiens, UniProt P04629); test: TrkA kinase biochemical activity assay (AlphaScreen); conditions: 100 μM ATP; read-out: Biochemical Inhibition IC50 TrkA
Description: In one assay the biochemical activity IC50 values are determined with respect to inhibition of TrkA kinase activity, where inhibition of phosphorylation of a peptide substrate is measured as a function of compound concentration. Compounds to be tested, dissolved in DMSO (1 μL), are added to a white 384-well plate (Costar #3705). Working stocks of TrkA kinase (UBI), biotin-(E4Y)10 substrate (Upstate Biotech, Cat#12-440), and ATP (Sigma, Cat#A-3377) are prepared in 25 mM Hepes pH 7.5, 10 mM MnCl2, 1 mM DTT, 0.01% BSA, and 0.01% Tween-20. All components are added to the 384-well plate for a final concentration of 1 ng/well TrkA, 30 nM biotin-(E4Y)10 and 100 μM ATP in a volume of 20 μL. Each sample is at 5% DMSO. The plate is shaken for 1 minute at 1200 rpm, spun for 1 minute at 1000 rpm, then incubated for 40 minutes at room temperature. Just before use, working stocks of donor and acceptor beads from the AlphaScreen PY20 Detection Kit (PerkinElmer, Cat#676601M) are prepared in 25 mM Hepes pH 7.5, 100 mM EDTA. 0.01% BSA. Donor Beads solution (Streptavidin beads) is added (5 μL) to each well to final bead concentration of 10 μg/mL. The plate is incubated at room temperature for 20 minutes. Acceptor Beads solution (PY20 coated beads) are then added to each well (5 μL) to a final concentration of bead at 10 μg/mL. The plates are incubated at room temperature for 60 minutes. Fluorescence signal is recorded on the Envision reader. Phosphorylated substrate results in binding of the PY20 antibody and association of the donor and acceptor beads such that signal correlates with kinase activity. The signal vs. compound concentration is used to determine the IC50. Similar assays are used for TrkB and Trk C kinase.

Sequence of TrkA kinase (P04629 33-796): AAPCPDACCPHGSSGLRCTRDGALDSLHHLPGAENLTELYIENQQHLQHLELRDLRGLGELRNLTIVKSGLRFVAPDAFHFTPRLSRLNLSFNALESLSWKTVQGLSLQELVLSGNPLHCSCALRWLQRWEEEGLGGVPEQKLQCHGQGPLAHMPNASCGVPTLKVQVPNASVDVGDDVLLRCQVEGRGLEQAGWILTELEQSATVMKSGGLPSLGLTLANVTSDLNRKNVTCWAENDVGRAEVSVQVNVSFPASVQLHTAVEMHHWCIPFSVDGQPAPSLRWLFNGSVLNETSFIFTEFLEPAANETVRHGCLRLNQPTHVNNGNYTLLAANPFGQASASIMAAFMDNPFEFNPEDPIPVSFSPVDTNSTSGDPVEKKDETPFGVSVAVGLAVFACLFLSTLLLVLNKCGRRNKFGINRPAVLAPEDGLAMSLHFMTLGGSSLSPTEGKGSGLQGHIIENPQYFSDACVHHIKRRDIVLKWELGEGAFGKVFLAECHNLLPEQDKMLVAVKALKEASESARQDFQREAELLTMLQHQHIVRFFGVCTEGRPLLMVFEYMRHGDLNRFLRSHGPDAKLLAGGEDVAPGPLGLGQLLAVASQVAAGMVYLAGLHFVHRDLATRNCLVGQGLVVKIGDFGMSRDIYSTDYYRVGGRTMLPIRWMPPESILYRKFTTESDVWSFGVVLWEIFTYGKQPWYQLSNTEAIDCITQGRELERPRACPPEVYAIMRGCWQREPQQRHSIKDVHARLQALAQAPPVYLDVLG

Row | Structure (SMILES) | turbidity threshold (L, M, H) 1.4 [1] | turbidity threshold (L, M, H) 4.5 [1] | turbidity threshold (L, M, H) 6.8 [1] | turbidity threshold (L, M, H) 7.4 [1] | IC50 (TrkA kinase)
1 | CNc1ncnc2[nH]cc(C(=O)c3ccc(NC4CCC(F)(F)CC4)nc3)c12 [Compound P-4089, [6-[(4,4-difluorocyclohexyl)amino]-3-pyridyl]-[4-(methylamino)-7H-pyrrolo[2,3-d]pyrimidin-5-yl]methanone] | H (high solubility if the threshold concentration is >250 μm) | M (moderate solubility if the threshold concentration is 31.3 μM to 250 μM) | M (moderate solubility if the threshold concentration is 31.3 μM to 250 μM) | M (moderate solubility if the threshold concentration is 31.3 μM to 250 μM) | < 0.1 µM
2 | CCc1ccc(Nc2ccc(C(=O)c3c[nH]c4ncnc(NCC(C)C)c34)c(F)n2)cn1 [Compound P-4121, [6-[(6-ethyl-3-pyridyl)amino]-2-fluoro-3-pyridyl]-[4-(isobutylamino)-7H-pyrrolo[2,3-d]pyrimidin-5-yl]methanone] | H (high solubility if the threshold concentration is >250 μm) | H (high solubility if the threshold concentration is >250 μm) | H (high solubility if the threshold concentration is >250 μm) | H (high solubility if the threshold concentration is >250 μm) | < 0.1 µM
3 | CC(C)Nc1ncnc2[nH]cc(C(=O)c3ccc(NC4CCCCC4)nc3F)c12 [Compound P-4101, [6-(cyclohexylamino)-2-fluoro-3-pyridyl]-[4-(isopropylamino)-7H-pyrrolo[2,3-d]pyrimidin-5-yl]methanone] | M (moderate solubility if the threshold concentration is 31.3 μM to 250 μM) | L (low solubility if the threshold concentration is <31.3 μM) | L (low solubility if the threshold concentration is <31.3 μM) | L (low solubility if the threshold concentration is <31.3 μM) | < 0.1 µM
4 | CCCNc1ncnc2[nH]cc(C(=O)c3ccc(Nc4ccc(C)nc4)nc3F)c12 [Compound P-4114, [2-fluoro-6-[(6-methyl-3-pyridyl)amino]-3-pyridyl]-[4-(propylamino)-7H-pyrrolo[2,3-d]pyrimidin-5-yl]methanone] | H (high solubility if the threshold concentration is >250 μm) | L (low solubility if the threshold concentration is <31.3 μM) | L (low solubility if the threshold concentration is <31.3 μM) | L (low solubility if the threshold concentration is <31.3 μM) | < 0.01 µM
5 | CCNc1ncnc2[nH]cc(C(=O)c3ccc(Nc4ccc(C5CC5)nc4)nc3F)c12 [Compound P-4060, [6-[(6-cyclopropyl-3-pyridyl)amino]-2-fluoro-3-pyridyl]-[4-(ethylamino)-7H-pyrrolo[2,3-d]pyrimidin-5-yl]methanone] | H (high solubility if the threshold concentration is >250 μm) | M (moderate solubility if the threshold concentration is 31.3 μM to 250 μM) | M (moderate solubility if the threshold concentration is 31.3 μM to 250 μM) | M (moderate solubility if the threshold concentration is 31.3 μM to 250 μM) | < 0.01 µM
6 | CNc1ncnc2[nH]cc(C(=O)c3ccc(Nc4ccc(C)nc4)nc3F)c12 [Compound P-4115, [2-fluoro-6-[(6-methyl-3-pyridyl)amino]-3-pyridyl]-[4-(methylamino)-7H-pyrrolo[2,3-d]pyrimidin-5-yl]methanone] | H (high solubility if the threshold concentration is >250 μm) | M (moderate solubility if the threshold concentration is 31.3 μM to 250 μM) | M (moderate solubility if the threshold concentration is 31.3 μM to 250 μM) | M (moderate solubility if the threshold concentration is 31.3 μM to 250 μM) | < 0.01 µM
7 | COc1cncc(Nc2ccc(C(=O)c3c[nH]c4ncnc(NC5CC5)c34)c(F)n2)c1 [Compound P-4107, [4-(cyclopropylamino)-7H-pyrrolo[2,3-d]pyrimidin-5-yl]-[2-fluoro-6-[(5-methoxy-3-pyridyl)amino]-3-pyridyl]methanone] | M (moderate solubility if the threshold concentration is 31.3 μM to 250 μM) | M (moderate solubility if the threshold concentration is 31.3 μM to 250 μM) | M (moderate solubility if the threshold concentration is 31.3 μM to 250 μM) | M (moderate solubility if the threshold concentration is 31.3 μM to 250 μM) | < 0.01 µM
8 | Fc1cc(Cc2c[nH]c3ncnc(NC4CC4)c23)cnc1NC1CCC(F)(F)CC1 [Compound P-4127, N-cyclopropyl-5-[[6-[(4,4-difluorocyclohexyl)amino]-5-fluoro-3-pyridyl]methyl]-7H-pyrrolo[2,3-d]pyrimidin-4-amine] | H (high solubility if the threshold concentration is >250 μm) | M (moderate solubility if the threshold concentration is 31.3 μM to 250 μM) | M (moderate solubility if the threshold concentration is 31.3 μM to 250 μM) | M (moderate solubility if the threshold concentration is 31.3 μM to 250 μM) | < 0.1 µM
9 | COc1ccc(Nc2ccc(C(=O)c3c[nH]c4ncnc(NC5CCCC5)c34)c(F)n2)cn1 [Compound P-4075, [4-(cyclopentylamino)-7H-pyrrolo[2,3-d]pyrimidin-5-yl]-[2-fluoro-6-[(6-methoxy-3-pyridyl)amino]-3-pyridyl]methanone] | M (moderate solubility if the threshold concentration is 31.3 μM to 250 μM) | L (low solubility if the threshold concentration is <31.3 μM) | L (low solubility if the threshold concentration is <31.3 μM) | L (low solubility if the threshold concentration is <31.3 μM) | < 0.01 µM
10 | CCCNc1ncnc2[nH]cc(C(=O)c3ccc(Nc4cncc(OC)c4)nc3F)c12 [Compound P-4105, [2-fluoro-6-[(5-methoxy-3-pyridyl)amino]-3-pyridyl]-[4-(propylamino)-7H-pyrrolo[2,3-d]pyrimidin-5-yl]methanone] | M (moderate solubility if the threshold concentration is 31.3 μM to 250 μM) | M (moderate solubility if the threshold concentration is 31.3 μM to 250 μM) | M (moderate solubility if the threshold concentration is 31.3 μM to 250 μM) | M (moderate solubility if the threshold concentration is 31.3 μM to 250 μM) | < 0.1 µM
11 | Cc1ccc(Nc2ccc(C(=O)c3c[nH]c4ncnc(NC5CCCCC5)c34)c(F)n2)cn1 [Compound P-4111, [4-(cyclohexylamino)-7H-pyrrolo[2,3-d]pyrimidin-5-yl]-[2-fluoro-6-[(6-methyl-3-pyridyl)amino]-3-pyridyl]methanone] | H (high solubility if the threshold concentration is >250 μm) | L (low solubility if the threshold concentration is <31.3 μM) | L (low solubility if the threshold concentration is <31.3 μM) | L (low solubility if the threshold concentration is <31.3 μM) | < 0.1 µM
